{
  "source": "patent US11304970B2",
  "about": "“EGFR gene expression-suppressing siRNA, precursor of same, and applications thereof” (JIANGSU MICROMEDMARK BIOTECH CO., LTD., priority 2016, dated 2022)",
  "system": "mouse Lewis lung cancer",
  "assay": "Survival (Kaplan-Meier) and micro-CT tumour examination in Lewis lung cancer mice (Example 3)",
  "details": "5 mg/kg, once every 3 days, 7 times, plasmid intravenous, Gefitinib oral",
  "protocol": "To further study the therapeutic effect of the EGFR siRNA plasmid on mouse Lewis lung cancer, after successful model construction of Lewis lung cancer mice, we performed treatment in the following three groups: the EGFR-si plasmid group, Gefitinib group and control plasmid group, respectively. […] The EGFR-si plasmid and control plasmid were administered by intravenous injection, and Gefitinib was administered orally. The dosage in each treatment group was 5 mg/kg, and the administration interval was once every 3 days, for a total of 7 times. After the treatment, we recorded the survival situation of the mice and plotted the Kaplan-Meier survival curve using the Graphpad Prism statistical software.",
  "data": [
    {"smiles": "COc1cc2ncnc(Nc3ccc(F)c(Cl)c3)c2cc1OCCCN1CCOCC1", "note": "[Gefitinib]", "values": [
      {"measurement": "change of lung tumours after the treatment (micro-CT)", "result": "the tumours generally grew"}
    ]}
  ]
}
